Patent US20230073946A1, “AFFINITY PEPTIDE […] A[…] PROTECTION OF PROTEINS FROM OXIDATION” (ARIZONA BOARD OF REGENTS ON BEHALF OF THE UNIVERSITY OF …, priority 2020, published 2023)
“Also recorded” adds a separate entry of the source.

Tests used:
sugen/hypoxia PAH model [1] = test: Metabolic intermediates analysis of lung lysate (PCA); format: in vivo, rat; conditions: SU2+NP versus SU2
Method: Data were acquired using the West Coast Metabolomics Center at UC Davis. Briefly, Restek corporation Rtx-5Sil MS column was used with helium mobile phase at temperature interval (50-330° C.) and flow-rate: 1 mL min-1. Injection volume was 0.5 μL at 50° C. ramped to 250° C. by 12° C. s-1. Oven temperature started at 50° C. for 1 min, then ramped at 20° C. min-1 to 330° C., and held constant for 5 min. Mass spectrometry analysis was done on a Leco Pegasus IV mass spectrometer with unit mass resolution at 17 spectra s-1 from 80-500 Da at −70 eV ionization energy and 1800 V detector voltage with a 230° C. transfer line and a 250° C. ion source. Raw data files were preprocessed directly after data acquisition and stored as ChromaTOF-specific*.peg files, as generic*.txt result files and additionally as generic ANDI MS*.cdf files. ChromaTOF vs. 2.32 was used for data preprocessing without smoothing, 3s peak width, baseline subtraction just above the noise level, and automatic mass spectral deconvolution and peak detection at signal/noise levels of 5:1 throughout the chromatogram. Apex masses were reported for use in the BinBase algorithm. Result*.txt files were exported to a data server with absolute spectra intensities and further processed by a filtering algorithm implemented in the metabolomics BinBase database.

LDH = conditions: SU2 rats, NP treatment, lung tissue
Method: Female Sprague Dawley rats (200-250 g) obtained from Charles River (Wilmington, Mass., USA) were used in this study. […] Generally, PAH was induced by a single injection of SU5416 (50 mg/kg) subcutaneously, followed by 3 weeks of hypoxia (10% 02) and 2 weeks of normoxia. This study included five animal groups: control group; SU1, rats were analyzed after 1 week of SU5416 and hypoxia treatment; SU2, rats were analyzed after 2 weeks of SU5416 and hypoxia treatment; SUS, rats were analyzed after 5 weeks of SU5416 treatment (3 weeks of hypoxia with a following 2 weeks of normoxia); and SU2+NP peptide treatment 0.1 mg/kg/day intravenous (i.v.) injection started with SU5416 treatment for two-weeks.
LDH activity in lung tissue was assessed by Lactate Dehydrogenase Activity Colorimetric Assay Kit (K726, BioVision Inc. Calif., USA) according to manufacturer's instruction. All values were normalized with respect to protein concentrations as determined by the Pierce™ BCA Protein Assay Kit (Thermo Scientific, Rockford, Ill.).

sugen/hypoxia PAH model [2] = test: Hemodynamic measurement (RVSP, Fulton index), sugen/hypoxia PAH model; format: in vivo, rat; conditions: SU2 rats, NP 0.1 mg/kg/day i.v. two-weeks
Method: Animals were anesthetized with inactin 100 mg/kg intraperitoneally (i.p.) (T133, Sigma-Aldrich). A customized pressure transducer catheter (SPR-513, Millar Instruments, Houston, Tex.) was inserted into RV via the right jugular vein and advanced into the right ventricle to monitor right ventricular systolic pressure (RVSP) as described previously. Briefly, the pressure transducer catheter was connected to a Millar Transducer Control Unit TC-510 and PL3504 PowerLab 4/35 data acquisition system (AD Instruments, Colorado Springs, Colo.) to monitor RV pressure for 30-min. After this a tracheal catheter was connected to a ventilator system (Harvard Rodent Ventilator-683; Harvard Apparatus, South Natick, Mass.), the thorax was opened, and the lungs flushed with 0.9% sodium chloride through the right ventricle (RV). Heart and lungs were collected from animals; the RV free wall was separated from the left ventricle (LV), and the septum (5). Fulton index (RV/LV+S ratio) as a parameter of RV hypertrophy was calculated. The total wet lung weight was measured and normalized by the body weight of the animal. The left lung was fixed in formalin and embedded in paraffin for histological examination. The other portion of the lung was stored at −80° C. for further biochemical studies.

Akt [3] = test: Western blot of Akt nitration, phosphorylation and total nitration in lung lysate, sugen/hypoxia PAH model; format: in vivo, rat; conditions: SU2 rats, NP 0.1 mg/kg/day i.v. two-weeks
Method: (§1) For an analysis of the total lung protein, lung tissues were lysed as previously described. Briefly, 20-40 mg of lung tissue (human/rat) was lysed in Permeabilization Buffer mixed with protease and phosphatase inhibitor cocktails using a Fisher Homogenizer 850. The homogenate was centrifuged at 10,000 g for 10 min, and the supernatant was carefully collected. Cell membrane and cytosolic fractions were isolated using FractionPREP™ cell fraction kit (Biovision, Milpitas, Calif.) according to manufacturer's instruction. The protein concentration was measured using the BCA protein assay kit (Thermo Scientific, Rockford, Ill.). Samples were incubated with 6×Laemmli sample buffer (Boston Bioproducts Inc., Ashland, Mass.), for 5 min at 95° C., loaded on the 4-20% SDS-PAGE Mini-PROTEAN TGX Stain-Free™ gels (Bio-Rad Laboratories Inc., Hercules, Calif.) and separated by electrophoresis. Protein bands were transferred using Trans-Blot Turbo transferring system (Bio-Rad Laboratories Inc.) and then blocked with 5% bovine serum albumin in Tris-buffered saline. Membranes were probed using antibodies against Glut 4 (07-1404) from Millipore, pyruvate carboxylase (PC) (Ab229267) & peroxisome proliferator-activated receptor gamma coactivator 1-alpha (PGC-1α) (Ab191838) from Abcam, pyruvate dehydrogenase (PDH) (45-6600) from Invitrogen, phospho Akt (Ser 473) (4060S), Akt (9272S), hexokinase 1 (HK1) (C35C4), glyceraldehyde-3 phosphate dehydrogenase (GAPDH) (2118S), lactate dehydrogenase-A (LDHA) (2012S), phospho glycogen synthase kinase (GSK) 3 β (Ser9) (9336S), GSK3 β(9315S) and glucose 6-phosphate dehydrogenase (G6PD) (8866S) from Cell Signaling Technology. Mouse monoclonal anti-nitrotyrosine antibodies were obtained from Calbiochem, La Jolla, Calif. (487923). Akt Y350 NO2 antibody obtained as a custom-made antibody against Akt1-nitro (341-353) and the sequence was CGRLPF-nitroY-NQDHEK (SEQ ID NO: 2). Two peptides were developed with and without Y350 nitration. The antibody developed against nitrated peptide cleaned using non-nitrated peptide (Akt1 (341-353): […], SEQ ID NO: 3) to remove nonspecific antibodies. […] Since the quantification of the Akt nitration is not fully established by mass spectrometry, a common method was used by newly developed antibodies for the quantification of specific Y350 nitration of Akt. The reactive bands were visualized by chemiluminescent ChemiDoc™ MP Imaging System (Bio-Rad Laboratories Inc., Hercules, Calif.) and analyzed using Image Lab™ software. […] This normalization is equal to housekeeping genes normalization and rigorously evaluated by Bio-Rad company (http://www.bio-rad.com/en-us/applications-technologies/stain-free-imaging-technology?ID=NZ0G1815) and others in comparison with beta-actin normalization.

Akt [4] = biological target: T1, Akt (Rattus norvegicus, UniProt P47196); test: as above; format: in vivo; conditions: sugen/hypoxia rats two-weeks (SU2), NP 0.1 mg/kg/day i.v.
T1 construct: nitro Akt, phospho Akt and total Akt expression in the lung lysate; from tissue; host or cells: rat lung (Sprague Dawley, sugen/hypoxia model)
T1 sequence (P47196 whole entry): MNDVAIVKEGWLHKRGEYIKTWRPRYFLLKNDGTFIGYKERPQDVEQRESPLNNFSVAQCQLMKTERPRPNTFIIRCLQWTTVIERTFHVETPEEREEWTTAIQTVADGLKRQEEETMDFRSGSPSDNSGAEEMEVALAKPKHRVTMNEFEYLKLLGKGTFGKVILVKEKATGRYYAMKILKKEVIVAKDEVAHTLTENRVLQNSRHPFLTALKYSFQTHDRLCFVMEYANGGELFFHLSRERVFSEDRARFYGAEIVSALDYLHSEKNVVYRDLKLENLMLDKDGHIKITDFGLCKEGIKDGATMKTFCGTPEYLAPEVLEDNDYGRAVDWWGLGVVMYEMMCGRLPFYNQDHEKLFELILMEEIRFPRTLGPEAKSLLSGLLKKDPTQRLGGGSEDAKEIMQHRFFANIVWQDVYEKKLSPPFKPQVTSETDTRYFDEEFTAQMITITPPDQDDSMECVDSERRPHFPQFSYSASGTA
Method: as §1

sugen/hypoxia PAH model [5] = test: Histological analysis of pulmonary arteries (EVG, Ki-67), sugen/hypoxia PAH model; format: in vivo, rat; conditions: SU2 rats, NP 0.1 mg/kg/day i.v. two-weeks
Text: For the morphometric assessment of pulmonary vessels 5-μm tissue sections were dewaxed and stained with elastic fibers—Verhoeffs van gieson (EVG) by HistoWiz Inc. (Brooklyn, N.Y.) using standard operating procedures and a fully automated workflow system. Ten transversely sectioned pulmonary arteries (diameter<300 μm) within each category per each animal (N=6 per group) were randomly selected from the whole-slide 40X digitized image Aperio AT2 scanner (Leica Biosystems, Ill.). Immunohistochemistry was performed using standard protocols. The sections were deparaffinized and incubated with primary antibodies against Akt Y350 NO2 (1:100), and Ki67 (1:800) (ab15580 Abcam); Dab Rabbit H1 (pH 6) for 20 min. The morphometric analysis was done by an investigator by a blinded grouping fashion. The wall thickness of the pulmonary artery (PA) was measured using the publicly available software Fiji is just ImageJ (http://fiji.sc/Fiji; in the public domain).

HPASMCs [6] = test: Seahorse mitostress assay (OCR); format: cell-based, human; conditions: SIN-1 treatment
Method: (§2) For the glycostress Seahorse assay, human pulmonary artery smooth muscle cells (HPASMCs) were seeded in a 24 well Seahorse cell culture microplate at 50000/well and kept overnight to form a monolayer. On the day of experiment, the media was aspirated and cells were incubated at 37° C. in a non-CO2 incubator for 1 hour with 0.5 mL XF base medium (cat #102353-100, Agilent, Santa Clara, Calif.) supplemented with 2 mM glutamine. Glucose (56 μL, 100 mM), Oligomycin (62 μL, 100 μM) and 2-deoxyglucose (69 μL, 500 mM) was added to the flux pack wells (cat #102342-100, Agilent, Santa Clara, Calif.). ECAR (extracellular acidification rate) was then measured using Seahorse Bioscience XFe24 extracellular flux analyzer (Agilent, Santa Clara, Calif.) according to the manufacturer's protocol. For the mitostress assay, cells were prepared like the glycostress assay with the exception that the XF base incubation media was supplemented with pyruvate (1 mM), glutamine (2 mM) and glucose (10 mM). Oligomycin (56 μL, 10 μM), FCCP (62 μL, 10 μM) and Rotenone+Antimycin-A (69 μL, 5 μM) were added to the flux pack wells. OCR (oxygen consumption rate) was then identified according to the manufacturer's protocol. Data was normalized to cell number as determined by flow cytometry. All the chemicals used for these experiments, unless specified, were procured from Sigma-Aldrich.

PDH = test: Pyruvate dehydrogenase assay in lung tissue; format: in vivo, rat; conditions: SU2 rats, NP treatment
Method: Lung tissue was lysed using RIPA buffer and the lysate was used for the PDH activity. PDH activity was measured with PDH Activity Assay Kit (MAK183, Sigma-Aldrich) per the manufacturer protocol.

HPASMCs [7] = test: Seahorse glycostress assay (ECAR); format: cell-based, human; conditions: SIN-1 treatment
Method: as §2

sugen/hypoxia PAH model [8] = test: Western blot of metabolic proteins in lung tissue, sugen/hypoxia PAH model; format: in vivo, rat; conditions: SU2 rats
Method: For an analysis of the total lung protein, lung tissues were lysed as previously described. Briefly, 20-40 mg of lung tissue (human/rat) was lysed in Permeabilization Buffer mixed with protease and phosphatase inhibitor cocktails using a Fisher Homogenizer 850. The homogenate was centrifuged at 10,000 g for 10 min, and the supernatant was carefully collected. Cell membrane and cytosolic fractions were isolated using FractionPREP™ cell fraction kit (Biovision, Milpitas, Calif.) according to manufacturer's instruction. The protein concentration was measured using the BCA protein assay kit (Thermo Scientific, Rockford, Ill.). Samples were incubated with 6×Laemmli sample buffer (Boston Bioproducts Inc., Ashland, Mass.), for 5 min at 95° C., loaded on the 4-20% SDS-PAGE Mini-PROTEAN TGX Stain-Free™ gels (Bio-Rad Laboratories Inc., Hercules, Calif.) and separated by electrophoresis. Protein bands were transferred using Trans-Blot Turbo transferring system (Bio-Rad Laboratories Inc.) and then blocked with 5% bovine serum albumin in Tris-buffered saline. Membranes were probed using antibodies against Glut 4 (07-1404) from Millipore, pyruvate carboxylase (PC) (Ab229267) & peroxisome proliferator-activated receptor gamma coactivator 1-alpha (PGC-1α) (Ab191838) from Abcam, pyruvate dehydrogenase (PDH) (45-6600) from Invitrogen, phospho Akt (Ser 473) (4060S), Akt (9272S), hexokinase 1 (HK1) (C35C4), glyceraldehyde-3 phosphate dehydrogenase (GAPDH) (2118S), lactate dehydrogenase-A (LDHA) (2012S), phospho glycogen synthase kinase (GSK) 3 β (Ser9) (9336S), GSK3 β(9315S) and glucose 6-phosphate dehydrogenase (G6PD) (8866S) from Cell Signaling Technology. Mouse monoclonal anti-nitrotyrosine antibodies were obtained from Calbiochem, La Jolla, Calif. (487923). Akt Y350 NO2 antibody obtained as a custom-made antibody against Akt1-nitro (341-353) and the sequence was CGRLPF-nitroY-NQDHEK (SEQ ID NO: 2). Two peptides were developed with and without Y350 nitration. The antibody developed against nitrated peptide cleaned using non-nitrated peptide (Akt1 (341-353): […], SEQ ID NO: 3) to remove nonspecific antibodies. Affinity purification was done using large reusable affinity purification columns against the unmodified and nitrated peptides. […] Since the quantification of the Akt nitration is not fully established by mass spectrometry, a common method was used by newly developed antibodies for the quantification of specific Y350 nitration of Akt. The reactive bands were visualized by chemiluminescent ChemiDoc™ MP Imaging System (Bio-Rad Laboratories Inc., Hercules, Calif.) and analyzed using Image Lab™ software. The protein loading was normalized per total sample protein as fold control using stain free gels as previously described. This normalization is equal to housekeeping genes normalization and rigorously evaluated by Bio-Rad company (http://www.bio-rad.com/en-us/applications-technologies/stain-free-imaging-technology?ID=NZ0G1815) and others in comparison with beta-actin normalization.

Akt (Y350 nitration) = biological target: T2, Akt (Y350 nitration) (Homo sapiens, UniProt P31749); test: Sin-1 induced Akt nitration assay in HPAECs; format: cell-based; conditions: 1 μM NP pretreatment 30 min, washed, then SIN-1 1 mM 1 hour
T2 construct: endogenous in cells; host or cells: HPAEC (human pulmonary artery endothelial cells)
T2 sequence (P31749 whole entry): as the sequence (P47196 whole entry) above, with N2S, E46D, S50A, R112K, T117E, A137S, T389K, N410G, D415H counted along it
Method: Human pulmonary artery endothelial cells (HPAECs) were cultured using an endothelium media specific for HPAEC with 10% FBS. Cells were used from passages 3-6. All experiments were performed on 80-90% confluent cells. Akt nitration was induced by treatment with 3-Morpholinosyndnomine (SIN-1) (1 mM) for 1 hour. NP pretreatment groups were treated with 1 μM NP for 30 min, and then cells were washed in PBS and treated with SIN-1 for 1 hour. All treatments were accompanied by including controls with the corresponding vehicle. After treatment, the cells were washed in PBS and lysed in a RIPA buffer containing protease and phosphatase inhibitor cocktail.
For an analysis of the total lung protein, lung tissues were lysed as previously described. Briefly, 20-40 mg of lung tissue (human/rat) was lysed in Permeabilization Buffer mixed with protease and phosphatase inhibitor cocktails using a Fisher Homogenizer 850. […] The protein concentration was measured using the BCA protein assay kit (Thermo Scientific, Rockford, Ill.). […] Since the quantification of the Akt nitration is not fully established by mass spectrometry, a common method was used by newly developed antibodies for the quantification of specific Y350 nitration of Akt. The reactive bands were visualized by chemiluminescent ChemiDoc™ MP Imaging System (Bio-Rad Laboratories Inc., Hercules, Calif.) and analyzed using Image Lab™ software. […]

NP: peptide Ser-Arg-IIe-Arg-Ser (SEQ ID NO: 1) with nitroxide (3-Carboxy-2,2,5,5-tetramethyl pyrroline-1-yloxy) covalently attached to the free N-terminal amine
metabolites significantly restored by treatment (sugen/hypoxia PAH model [1]): 30 metabolites
LDHA activity (LDH): attenuating
Fulton index (RV/LV+S), RV hypertrophy (sugen/hypoxia PAH model [2]): markedly decreased; also recorded: reversed
right ventricular systolic pressure (RVSP) (sugen/hypoxia PAH model [2]; SU2 without NP 71.9±3.6, p<0.001): 36.1±2.6
Phosphorylation of Akt at Ser-473 (Akt [3]; lung lysate): does not affect
total Akt expression (Akt [3]; lung lysate): did not change
total nitration in lungs (Akt [3]; selectivity toward Akt nitration): did not significantly alter
nitroAkt modification in the lung tissue (Akt [4]): significantly reduced; also recorded: remarkable reduction
EVG staining: perivascular fibrosis, vasoconstriction and proliferation in pulmonary arteries (sugen/hypoxia PAH model [5]): significantly attenuated
vascular remodeling and cellular proliferation (Ki-67 staining) (sugen/hypoxia PAH model [5]): effectively prevented
basal respiration rate (HPASMCs [6]): without affecting
mitochondrial oxidative phosphorylation rate (OCR) (HPASMCs [6]): upregulated the oxidative phosphorylation rate to control level
PDH activity (PDH): increased
Glycolytic capacity (HPASMCs [7]): attenuated
glycolysis (glycolytic rate, ECAR) (HPASMCs [7]): attenuated this back to control level
pyruvate carboxylase (PC) expression (sugen/hypoxia PAH model [8]; NP 0.1 mg/kg/day i.v. two-weeks): decreased
G6PD expression (sugen/hypoxia PAH model [8]; NP treatment): upregulated significantly
GSK3β expression (sugen/hypoxia PAH model [8]; NP treatment): reversed
Glut4 translocation to membrane (membrane/cytosol ratio) (sugen/hypoxia PAH model [8]; NP treatment): attenuated
LDHA expression (sugen/hypoxia PAH model [8]; NP treatment): attenuating
PDH expression (sugen/hypoxia PAH model [8]; NP treatment): significantly increased
PGC1α expression (sugen/hypoxia PAH model [8]; NP treatment): significantly reduced
reduction of Akt nitration (Y350) (Akt (Y350 nitration)): 55%
